For experiment [1], the system named is differentiated PC12 cells. The experiment can be described thus: Survival of differentiated PC12 cells after NGF withdrawal, cell viability by CyQUANT. To be noted: differentiated PC12 cells in serum-free medium, after 4 days; FIG. 1B. The experiment is classed as cell-based. The protocol: (§1) Survival of Differentiated PC12 Cells after NGF Withdrawal
(§2) PC12 cells are considered models for […] neurons for the investigation of neuronal differentiation and apoptosis.
(§3) PC12 cells were seeded in collagen coated 96 well plates at a cell density of 8000/cm^2 in DMEM with 7.5% FCS, 7.5% HS and 2 nM NGF and cultured for 6 days.
(§4) The medium was then changed to DMEM without serum supplemented with the compound of the test compound in the concentrations indicated in FIG. 1. As a positive control, parallel wells receiving serum-free DMEM without addition of vehicle or 3 nM NGF were included.
In another assay cell viability after 4 days was evaluated by using the CyQUANT Cell Proliferation Kit from Molecular Probes. CyQUANT might give a better correlation with the actual cell number of the culture than MTS, which rather reflects the total metabolic activity of the culture, cf. FIG. 1B.

Experiment [2] relates to differentiated PC12 cells. The experiment is described as follows: Survival of differentiated PC12 cells after NGF withdrawal, cell viability by reduction of MTS. The experiment is classed as cell-based. The protocol:
as §1, §2, §3, §4
After 4 days of incubation, cell viability was evaluated by reduction of MTS using the CellTiter 96 AQueous Non-radioactive Cell Proliferation Assay (available from Promega).
Data are expressed as % of the response seen with 3 nM NGF, and corrected for residual MTS reduction activity in the parallel serum-free cultures, cf. FIG. 1A.

Experimental findings from patent US6576641B2, “Fused heterocyclic compounds and their use in the treatment of neurodegenerative diseases” (Neurosearch A/S, priority 1999, dated 2003) are described below.

Structures are written as SMILES.

For the compound `CCCCN1CCc2oc(-c3ccc([N+](=O)[O-])cc3)cc2C1.O=C(O)/C=C/C(=O)O` [Compound 1, 6-(4-Nitrophenyl)-furano[3,2-c]-N-butyl-1,2,3,4-tetrahydropyridine Fumaric Acid Salt], in experiment [1], the “maximal rescue (cell survival, CyQUANT)” value is given as “approximately 50%”. In experiment [2] (at nanomolar concentrations, stated for both MTS and CyQUANT experiments), the “rescue of differentiated PC12 cells in serum-free medium” value was “potent dose-dependent rescue”. The “maximal protection (cell viability, MTS)” value in experiment [2] (differentiated PC12 cells in serum-free medium, 4 days of incubation, % of the response seen with 3 nM NGF, corrected for serum-free cultures, FIG. 1A) was “approximately 30%”. For the same compound, in experiment [2] (differentiated PC12 cells in serum-free medium, tested 1 nM to 10 μM, stated for both MTS and CyQUANT experiments), the “concentration giving maximal protection” value stood at 100 nM.
